Seven compounds from patent publication US5849735A, “Tricyclic benzazepine vasopressin antagonists” (American Cyanamid Company, priority 1995, dated 1998) can be followed below.

Assay [1] concerns the target T1, oxytocin receptor (rat uteri) (Rattus norvegicus, UniProt P70536).
T1 construct: The uteri are dissected out, cleaned of fat and connective tissues; from tissue; host or cells: uteri of diethylstilbestrol-treated female Sprague-Dawley rats
T1 sequence (P70536 1-388): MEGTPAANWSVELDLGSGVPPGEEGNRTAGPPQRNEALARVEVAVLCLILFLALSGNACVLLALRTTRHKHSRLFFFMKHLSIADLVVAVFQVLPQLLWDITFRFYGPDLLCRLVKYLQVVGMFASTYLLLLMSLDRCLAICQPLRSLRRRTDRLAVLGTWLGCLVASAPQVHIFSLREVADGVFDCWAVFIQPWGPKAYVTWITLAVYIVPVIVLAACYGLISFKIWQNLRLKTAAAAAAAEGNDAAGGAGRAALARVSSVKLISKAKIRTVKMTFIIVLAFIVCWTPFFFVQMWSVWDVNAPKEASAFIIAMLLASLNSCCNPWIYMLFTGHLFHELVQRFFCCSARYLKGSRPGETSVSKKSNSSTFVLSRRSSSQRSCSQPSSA
The assay is described as follows: Oxytocin Receptor Binding. Details: species or system rat (Sprague-Dawley). Conditions: for IC50: [3H]oxytocin displacement. As for the experimental part: Oxytocin Receptor Binding
Female Sprague-Dawley rats weighing approximately 200-250 g are injected intramuscularly (i.m.) with 0.3 mg/kg of body weight of diethylstilbestrol (DES). The rats are sacrificed 18 hours later under pentobarbital anesthesia. The uteri are dissected out, cleaned of fat and connective tissues and rinsed in 50 ml of normal saline. The tissue pooled from six rats is homogenized in 50 ml of […] Tris. HCl, containing 0.5 mM dithiothreitol and 1.0 mM EDTA, adjusted to pH 7.4, using a polytron at setting 6 with three passes of 10 sec each. The homogenate is passed through two (2) layers of cheesecloth and the filtrate centrifuged at 1000×g for 10 minutes. The clear supernatant is removed and recentrifuged at 165,000×g for 30 minutes. The resulting pellet containing the oxytocin receptors is resuspended in 50.0 mM Tris.HCl containing 5.0 mM MgCl2 at pH 7.4, to give a protein concentration of 2.5 mg/ml of tissue suspension. This preparation is used in subsequent binding assays with [^3 H]oxytocin.
Binding of 3,5-[^3 H]Oxytocin ([^3 H]OT) to its receptors is done in microtiter plates using [^3 H]OT, at various concentrations, in an assay buffer of 50.0 mM Tris.HCI, pH 7.4 and containing 5.0 mM MgCl2, and a mixture of protease inhibitors: BSA, 0.1 mg; aprotinin, 1.0 mg; 1,10-phenanthroline, 2.0 mg; […], 10.0 mg; and PMSF, 0.3 mg per 100 ml of buffer solution. Non-specific binding is determined in the presence of 1.0 uM unlabeled OT. The binding reaction is terminated after 60 minutes, at 22° C., by rapid filtration through glass fiber filters using a Brandel® cell harvester (Biomedical Research and Development Laboratories, Inc., Gaithersburg, Md.). Competition experiments are conducted at equilibrium using 1.0 nM [^3 H]OT and varying the concentration of the displacing agents. The concentrations of agent displacing 50% of [^3 H]OT at its sites (IC50) are calculated by a computer assisted LUNDON-2 program (LUNDON SOFTWARE INC., Ohio, USA).

The subject of assay [2] is vasopressin V2. The assay is described as follows: Vasopressin V2 Antagonist Activity in Conscious Hydrated Rats. In kind it is in vivo, rat. Conditions: oral 10 mg/kg, N=2, AVP challenge. As for the experimental part: Vasopressin V2 Antagonist Activity in Conscious Hydrated Rats Conscious hydrated rats are treated with compounds under study from 0.1 to 100 mg/kg orally or vehicle. Two to four rats are used for each compound. One hour later, arginine vasopressin (AVP, antidiuretic Hormone, ADH) dissolved in peanut oil is administered at […] intraperitoneally. Two rats in each test would not receive arginine vasopressin but only the vehicle (peanut oil) to serve as water-loading control. Twenty minutes later each rat is given 30 mL/kg of deionized water orally by gavage and is placed individually in a metabolic cage equipped with a funnel and a graduated glass cylinder to collect urine for four hours. Urine volume is measure and osmolality analyzed by use of a Fiske One-Ten osmometer (Fiske Assoc., Norwood, Mass., USA). Urinary sodium, potassium, and chloride are analyzed by use of ion-specific electrodes in a Beckman E3 (Electrolye 3) Analyzer. In the following results, […] and decreased osmolality relative to AVP-control indicates activity.

`Cc1ccc(F)cc1C(=O)Nc1ccc(C(=O)N2Cc3ccccc3CCc3ccccc32)cn1` [Example 45]: in assay [1], testing at 1 µM gave an inhibition of 54%. In assay [2], the Osmolality amounted to 979 MOsm/kg and the “Urine Volume” value came to 6.6 ml/4 hrs.
`O=C(c1ccc(-c2ccccc2)cc1)N1Cc2ccccc2Oc2ccccc21` [Example 26, 10-([1,1'-Biphenyl]-4-ylcarbonyl)-10,11-dihydrodibenz[b,f][1,4]oxazepine]: in assay [1], the 50% inhibitory concentration (IC50) (usually the concentration at which inhibition is half-maximal) stood at 2500 nM and the inhibition (in general, the share of the control response that was lost under treatment) at 10 µM turned out to be 73%. For the same compound, in assay [2], the Osmolality was found to be 1058 MOsm/kg and the “Urine Volume” value stood at 4.5 ml/4 hrs.
The like results for `O=C(c1ccccc1)c1ccc(C(=O)N2Cc3ccccc3Oc3ccccc32)cc1` [Example 32, 10-(4-Benzoylbenzoyl)-10,11-dihydrodibenz[b,f][1,4]oxazepine] were, in that order, 1800 nM, 88%, 726 MOsm/kg and 9.3 ml/4 hrs.
`Cc1ccc(F)cc1C(=O)Nc1ccc(C(=O)N2Cc3ccccc3Oc3ncccc32)cn1` [Example 4, N-[5-(Pyrido[2,3-b][1,4]benzoxazepin-5(6H)-ylcarbonyl)-2-pyridinyl]-5-fluoro-2-methylbenzamide] came in with an inhibition at 10 µM in assay [1] of 20%. Also, in assay [2], the Osmolality is recorded as 878 MOsm/kg and the “Urine Volume” value stood at 6.8 ml/4 hrs.
In assay [1], `CCCCOc1ccc(C(=O)N2Cc3ccccc3Cc3ccccc32)cc1` [Example 24] had a half-maximal inhibitory concentration (IC50) of 1800 nM and an inhibition at 10 µM of 97%. Besides, in assay [2], the Osmolality is reported as 1492 MOsm/kg and the “Urine Volume” value was determined as 4.3 ml/4 hrs.
On to `Cc1ccc(F)cc1C(=O)Nc1ccc(C(=O)N2Cc3sccc3Cc3ccccc32)cn1` [Example 2, N-[5-[(9,10-Dihydro-4H-thieno[2,3-c][1]benzazepin-9-yl)carbonyl]-2-pyridinyl]-5-fluoro-2-methylbenzamide], for which, in assay [1], the IC50 stood at 1100 nM and at 10 µM the inhibition was 86%. Also, in assay [2], the Osmolality was 591 MOsm/kg and the “Urine Volume” value is 16.5 ml/4 hrs.
On to `O=C(c1ccc(-c2ccccc2)cc1)N1Cc2sccc2Cc2ccccc21` [Example 27, 9-([1,1'-Biphenyl]-4-ylcarbonyl)-9,10-dihydro-4H-thieno[2,3-c][1]benzazepine], for which, in assay [1], at 1 µM the inhibition was 83%. In assay [2], the Osmolality was determined as 1317 MOsm/kg and the “Urine Volume” value stood at 3.3 ml/4 hrs.
